Assay results taken from US11185812B2, “Regenerative recovery of sulfur dioxide from effluent gases” (MECS, INC., priority 2010, dated 2021).
Like-named read-outs stand apart in the source and are kept apart here.

Tests used:
[1] = Equilibrium loading data for metal salts, batch absorber experiments; type: physicochemical; details: atmospheric pressure; for SO2, ppm: equilibrium SO2 concentration; for Loading Capacity (fraction): equilibrium, aqueous absorption solution
Description: The following experiments were conducted in a batch absorber wherein a sulfur dioxide-containing gas was fed via a sparger below the liquid level in a vessel containing an aqueous absorption solution comprising various polyprotic carboxylic acid salts and the composition of the exhaust gas was monitored.
The sulfur dioxide-containing inlet gas 101 to be treated comprised nitrogen saturated with water vapor and a controlled concentration of sulfur dioxide. Temperatures (T) and pressure (P) were monitored during the experiment and gas samples (S) were taken at different times during the experiment. T1 and P1 are temperature and pressure sensors of inlet gas 101. S1 is a sampling point for inlet gas 101. T2 is a temperature sensor of the liquid in the vessel. T3 is a temperature sensor of exhaust gas 102.
In these experiments and other experiments reported in the Examples below, the gas concentrations were measured by gas chromatography and liquid concentrations were calculated by material balance.
All experiments were performed at atmospheric pressure. These experiments approach equilibrium concentrations and, in some cases, equilibrium data (denoted Eq. in the legend) are also included in the graphed results. For the equilibrium data, the compositions of the gas and liquid were diluted with excess caustic to maintain the sulfur dioxide in solution.
Total sulfur content was determined using ASTM Standard D1552, “Standard Test Method for Sulfur in Petroleum Products (High-Temperature Method”, DOI: 10.1520/D1552-08, available from ASTM International, West Conshohocken, Pa., www.astm.org.

[2] = cited from earlier work

Structure (SMILES) | SO2, ppm ([1]; 50 °C) [ppm] | SO2, ppm ([1]; 100 °C) [ppm] | Loading Capacity (fraction) ([1]; 50 °C) | Loading Capacity (fraction) ([1]; 100 °C) | pKa1 ([2]; 25° C.) | pKa2 ([2]; 25° C.) | pKa1 ([2]; temperature not given)
O=C([O-])CC(O)(CC(=O)[O-])C(=O)[O-].[K+].[K+].[K+] [K Cit, potassium citrate] | 105.94 | 1162.54 | 0.2754 | 0.2668 | – | – | –
O=C(O)CCCC(=O)O [L-Glutaric Acid] | – | – | – | – | 4.31 | 5.41 | –
CC(=O)CCC(=O)O [Levulinic Acid] | – | – | – | – | 4.59 | – | –
O=C([O-])CC(O)C(=O)[O-].[Na+].[Na+] (stereo not shown) [Na Mal, sodium malate] | 406.6 | 2169.06 | 0.1694 | 0.1416 | – | – | –
O=C([O-])c1ccccc1C(=O)[O-].[Na+].[Na+] [Na Pha, sodium phthalate] | 1115.92 | 11303.83 | 0.6530 | 0.7250 | – | – | –
O=C([O-])CCC(=O)[O-].[Na+].[Na+] [Na Suc, sodium succinate] | 137.54 | 1387.3 | 0.1045 | 0.2053 | – | – | –
O=C(O)c1cccnc1 [Nicotinic acid] | – | – | – | – | – | – | 4.75
O=C(O)c1ccccc1C(=O)O [o-Phthalic Acid] | – | – | – | – | 2.89 | 5.51 | –
